Data reported in ChEMBL document CHEMBL1132058, “Potent inhibitors of protein farnesyltransferase: heteroarenes as cysteine replacements” (Bioorg Med Chem Lett, 1999).

Legend:
NIH3T3 [1] = assay: (§1) Inhibition of H-ras processing in subconfluent H-Ras-transformed NIH3T3 cells; format: functional, cell-based; conditions: Mus musculus
[2] = molecular target: Protein farnesyltransferase (Homo sapiens, UniProt P49354+P49356); assay: Inhibitory activity against farnesyltransferase (FT) using SPA assay; format: protein-complex assay
NIH3T3 [3] = assay: as §1; format: functional, Mus musculus; set-up: concentration or dose not given beside the values
NIH3T3 [4] = assay: as §1; format: functional, Mus musculus
NIH3T3 [5] = assay: Inhibition of H-ras processing in subconfluent H-Ras-transformed NIH3T3 cells at 1 uM; format: functional; conditions: Mus musculus
[6] = AUC value in rat after IV administration at a dose of 10 mg/kg; format: ADME, organism-based; set-up: dose 10 mg/kg, route intravenous; conditions: plasma
[7] = Bioavailability in rat after oral administration at a dose of 10 mg/kg; format: ADME, organism-based; conditions: in vivo
[8] = Tmax value in dog after oral administration at a dose of 5 mg/kg; format: ADME, organism-based, Canis lupus familiaris; set-up: dose 5 mg/kg, route oral; conditions: in vivo
[9] = AUC value in rat after oral administration at a dose of 10 mg/kg; format: ADME, organism-based; set-up: dose 10 mg/kg, route oral; conditions: plasma
[10] = AUC value in dog after IV administration at a dose of 5 mg/kg; format: ADME, organism-based, Canis lupus familiaris; set-up: dose 5 mg/kg, route intravenous; conditions: plasma
[11] = Half life period in dog after IV administration at a dose of 5 mg/kg; format: ADME, organism-based, Canis lupus familiaris; set-up: dose 5 mg/kg, route intravenous; conditions: in vivo
[12] = AUC value in dog after oral administration at a dose of 5 mg/kg; format: ADME, organism-based, Canis lupus familiaris; set-up: dose 5 mg/kg, route oral; conditions: plasma
[13] = Cmax value in dog after oral administration at a dose of 5 mg/kg; format: ADME, organism-based, Canis lupus familiaris; set-up: dose 5 mg/kg, route oral; conditions: in vivo
[14] = Cmax value in rat after oral administration at a dose of 10 mg/kg; format: ADME, organism-based; set-up: dose 10 mg/kg, route oral; conditions: in vivo
[15] = Half life period in rat after IV administration at a dose of 10 mg/kg; format: ADME, organism-based; set-up: dose 10 mg/kg, route intravenous; conditions: in vivo
[16] = Bioavailability in dog after oral administration at a dose of 5 mg/kg; format: ADME, organism-based, Canis lupus familiaris; conditions: in vivo
[17] = Tmax value in rat after oral administration at a dose of 10 mg/kg; format: ADME, organism-based; set-up: dose 10 mg/kg, route oral; conditions: in vivo

| SMILES | IC50 [2] [nM] | Inhibition (NIH3T3 [3]) [%] | further results |
| --- | --- | --- | --- |
| CSCC[C@H](NC(=O)c1ccc(/C=C/c2cncs2)cc1-c1ccccc1C)C(=O)O | 2.4 |  | EC50 (NIH3T3 [1]): > 1000 nM |
| CSCC[C@H](NC(=O)c1ccc(/C(=C\c2cccnc2)C(=O)OC(C)(C)C)cc1-c1ccccc1C)C(=O)O | 15 | 35 |  |
| CSCC[C@H](NC(=O)c1ccc(/C=C/c2cnccc2OCc2cc(F)cc(F)c2)cc1-c1ccccc1C)C(=O)O | 0.3 |  |  |
| CSCC[C@H](NC(=O)c1ccc(/C=C/c2cnccc2Cl)cc1-c1ccccc1C)C(=O)O | 0.29 | 60 |  |
| CSCC[C@H](NC(=O)c1ccc(/C=C/c2cnccc2C(O)(c2ccccc2)c2ccccc2)cc1-c1ccccc1C)C(=O)O | 0.66 |  | Inhibition (NIH3T3 [4]): 63% |
| CSCC[C@H](NC(=O)c1ccc(/C=C/c2ccc(Oc3ccccc3)nc2)cc1-c1ccccc1C)C(=O)O | 26 |  |  |
| CSCC[C@H](NC(=O)c1ccc(/C=C/n2ccnc2)cc1-c1ccccc1C)C(=O)O | 0.2 |  | EC50 (NIH3T3 [1]): > 1000 nM |
| CSCC[C@H](NC(=O)c1ccc(/C=C/c2cncnc2)cc1-c1ccccc1C)C(=O)O | 25 |  |  |
| CSCC[C@H](NC(=O)c1ccc(/C=C/c2cncc3ccccc23)cc1-c1ccccc1C)C(=O)O | 0.8 |  | inhibition at 1 µM (NIH3T3 [5]): 64% |
| COc1ccncc1/C=C/c1ccc(C(=O)N[C@@H](CCSC)C(=O)O)c(-c2ccccc2C)c1 | 2.9 | 66 |  |
| CSCC[C@H](NC(=O)c1ccc(/C=C/c2cnccc2C(O)C2CCCCC2)cc1-c1ccccc1C)C(=O)O (stereo partly specified) | 0.54 | 63 |  |
| CSCC[C@H](NC(=O)c1ccc(/C=C/c2cccnc2)cc1-c1ccccc1C)C(=O)O | 0.61 |  | AUC [6]: 6660 ng·h/mL; bioavailability [7]: 23%; Tmax [8]: 22.8 min; AUC [9]: 870 ng·h/mL; AUC [10]: 10500 ng·h/mL; half-life [11]: 33 min; AUC [12]: 2560 ng·h/mL; Cmax [13]: 2830 ng/mL; Cmax [14]: 321 ng/mL; half-life [15]: 129 min; bioavailability [16]: 24.5%; Tmax [17]: 19.8 min; Inhibition (NIH3T3 [4]): 79% |
| CSCC[C@H](NC(=O)c1ccc(/C=C/c2cnccc2O)cc1-c1ccccc1C)C(=O)O | 0.29 | 75 |  |
| CSCC[C@H](NC(=O)c1ccc(/C=C/c2cnccc2C2(O)CCCCC2)cc1-c1ccccc1C)C(=O)O | 0.81 | 74 |  |
| CSCC[C@H](NC(=O)c1ccc(/C=C/c2cnccc2C(=O)c2ccccc2)cc1-c1ccccc1C)C(=O)O | 0.92 |  | EC50 (NIH3T3 [1]): 1000 nM |
| CCCOc1ccncc1/C=C/c1ccc(C(=O)N[C@@H](CCSC)C(=O)O)c(-c2ccccc2C)c1 | 1.4 | 49 |  |
| CSCC[C@H](NC(=O)c1ccc(/C=C/c2c[nH]cn2)cc1-c1ccccc1C)C(=O)O | 0.63 |  | EC50 (NIH3T3 [1]): > 1000 nM |

| SMILES | IC50 [2] [nM] | Inhibition (NIH3T3 [3]) [%] | further results |
| --- | --- | --- | --- |
| CSCC[C@H](NC(=O)c1ccc(/C=C/c2cncc(-c3ccccc3)c2)cc1-c1ccccc1C)C(=O)O | 12 |  |  |
| CSCC[C@H](NC(=O)c1ccc(/C(=C/c2cccnc2)C(=O)OC(C)(C)C)cc1-c1ccccc1C)C(=O)O | 0.91 | 80 |  |
| CSCC[C@H](NC(=O)c1ccc(/C=C/c2cncc(Cc3ccccc3)c2)cc1-c1ccccc1C)C(=O)O | 4.7 |  | EC50 (NIH3T3 [1]): > 1000 nM |
| CSCC[C@H](NC(=O)c1ccc(/C=C/c2cnccc2C(O)c2ccccc2)cc1-c1ccccc1C)C(=O)O (stereo partly specified) | 0.58 |  | Inhibition (NIH3T3 [4]): 67% |
| CSCC[C@H](NC(=O)c1ccc(/C=C/c2cnccn2)cc1-c1ccccc1C)C(=O)O | 57 |  |  |
| CSCC[C@H](NC(=O)c1ccc(/C(C#N)=C/c2cccnc2)cc1-c1ccccc1C)C(=O)O | 0.59 | 57 |  |
| CSCC[C@H](NC(=O)c1ccc(C#Cc2cccnc2)cc1-c1ccccc1C)C(=O)O | 2.7 |  | EC50 (NIH3T3 [1]): 1000 nM |
| CSCC[C@H](NC(=O)c1ccc(CCn2ccnc2)cc1-c1ccccc1C)C(=O)O | 0.21 |  | EC50 (NIH3T3 [1]): > 1000 nM |
| CSCC[C@H](NC(=O)c1ccc(C#Cc2cncnc2)cc1-c1ccccc1C)C(=O)O | 140 |  |  |
| CSCC[C@H](NC(=O)c1ccc(CCc2cccnc2)cc1-c1ccccc1C)C(=O)O | 2.1 |  |  |
| CSCC[C@H](NC(=O)c1ccc(/C=C/c2cnccc2C(=O)[C@]23C[C@H]4C[C@H](C[C@H](C4)C2)C3)cc1-c1ccccc1C)C(=O)O | 0.12 | 74 |  |
| CSCC[C@H](NC(=O)c1ccc(/C(C#N)=C\c2cccnc2)cc1-c1ccccc1C)C(=O)O | 3.6 | 60 |  |
| CSCC[C@H](NC(=O)c1ccc(/C=C/c2cnc3ccccc3c2)cc1-c1ccccc1C)C(=O)O | 16 |  | EC50 (NIH3T3 [1]): > 1000 nM |
| CSCC[C@H](NC(=O)c1ccc(COc2cccnc2)cc1-c1ccccc1C)C(=O)O | 0.4 |  |  |
| CSCC[C@H](NC(=O)c1ccc(NC[C@@H](N)CS)cc1-c1ccccc1)C(=O)O |  |  | EC50 (NIH3T3 [1]): 1000 nM |
| CSCC[C@H](NC(=O)c1ccc(/C=C/c2cnccc2C(O)[C@]23C[C@H]4C[C@H](C[C@H](C4)C2)C3)cc1-c1ccccc1C)C(=O)O (stereo partly specified) | 0.37 | 61 |  |
| CSCC[C@H](NC(=O)c1ccc(CCc2c[nH]cn2)cc1-c1ccccc1C)C(=O)O | 0.15 |  | EC50 (NIH3T3 [1]): > 1000 nM |
